{"source": "patent US20040167170A1", "about": "“Methods of preventing breast cancer” (priority 1996, published 2004)", "assay_type_in_all_cases": "in vivo, human", "key": {"[1]": {"tested_on": "breast cancer in postmenopausal women", "test": "Phase III double-blind placebo-controlled raloxifene trials, all placebo-controlled studies combined: incidence of breast cancer", "conditions": "for Relative Risk (Raloxifene to Placebo) of breast cancer / Raloxifene Cases n/N (%): all raloxifene doses pooled; for Raloxifene Cases n/N (%): N estimated", "from_the_text": "(§1) As support for the utility of the current invention, the interim safety results of Phase III clinical trials with raloxifene are presented, below.\n(§2) The majority of cases of breast carcinoma have occurred in the large, ongoing osteoporosis treatment study of 7704 postmenopausal women with established osteoporosis. However additional cases have been reported in smaller studies of postmenopausal women at risk for osteoporosis. The studies reported herein are double-blind and placebo-controlled; most have durations of approximately three years and were designed to determine the efficacy of raloxifene to prevent or treat osteoporosis in postmenopausal women. In addition, the studies provide information on the status of cardiovascular health and other major medical conditions (including the incidence of breast carcinoma). Patients were randomly assigned to receive either placebo, 30 mg, 60 mg, 120 mg or 150 mg of drug per day, orally. All patients and investigators are blinded to study drug assignment (double-blind design). All patients in all groups received daily calcium supplements of approximately 500 mg/day. In addition, patients in the large, 7704-patient treatment study received Vitamin D supplements, 400-600 IU/day.\n(§3) Subjects selected for these studies are postmenopausal women (at least 2 years from the time of the last menstrual period), ages range from approximately forty-five to eighty years.\n(§4) Typical exclusion criteria from participation in these studies included: l)the presence of serious systemic disease, 2)acute or chronic liver disease, 3)substantially impaired kidney function, 4)subjects who, in the opinion of the investigator, have poor medical or psychiatric risk factors for inclusion in a clinical trial, e.g., drug or alcohol abuse, etc. 5)subjects with any history of cancer within five years of entry into the study, with the exception of superficial lesions, e.g., basal cell carcinoma of the skin 6)the presence of abnormal uterine bleeding. Most important of the exclusion criteria was the exclusion of women with present or past personal history of breast cancer or other estrogen-dependent neoplasia. These exclusion criteria generate a population of subjects which reflects the general population in regard to the risk of developing breast carcinoma, or in other words, those persons at no particular increased risk of developing breast cancer.\n(§5) Potential subjects were screened prior to enrollment into the study. Subjects were required to reveal their medical histories and current medical conditions. All potential patients were required either to have a baseline mammogram or ultrasound evaluation of the breast, or to have had one of these procedures in the 12-month period preceding study entry. In most studies, a two-year follow-up mammogram is required; however, annual mammograms are recommended. All subjects with diagnosed and reported carcinomas of the breast were required to discontinue immediately from study participation, and were referred by the site investigator for appropriate oncologic evaluation and care.\nThe overall ratio of treatment assignments for randomized patients (raloxifene to placebo) is approximately 2:1.\n(§6) The results shown in Tables 1-4 are for subjects with histopathologic diagnoses of carcinoma of the breast. The data include results from optional one year mammograms, as well as the required baseline and two year follow-up mammograms. Once a diagnosis of breast cancer was made, these subjects were discontinued from the study and their status decoded to reveal the therapy (arm) to which they been assigned (i.e. what study drug they had received).\n(§7) For the studies reported in this invention, the number of patients randomly assigned to receive placebo is approximately 3195. The number of patients randomly assigned to receive raloxifene (all doses combined) is approximately 6681. […] Table 1 presents the results for all placebo-controlled studies, with data for all doses of raloxifene pooled. […]"}, "[2]": {"tested_on": "breast cancer in postmenopausal women with established osteoporosis", "test": "Large (7704-patient) osteoporosis treatment study of postmenopausal women with established osteoporosis: incidence of breast cancer", "conditions": "for Relative Risk (Raloxifene to Placebo) of breast cancer / Raloxifene Cases n/N (%): 60 and 120 mg/day; for Raloxifene Cases n/N (%): N estimated", "from_the_text": "as §1, §2, §3, §4, §5, §6, §7"}, "[3]": {"tested_on": "postmenopausal women", "test": "Integrated safety analysis of Phase III clinical trials of raloxifene for prevention or treatment of osteoporosis", "conditions": "all doses integrated; more than 12,850 patient-years of exposure; nearly 3 years of clinical experience", "from_the_text": "Because the goal of disease prevention is to protect women from the carcinogenic event (or the occurrence of precancerous lesions) and the subsequent promotion or progression to invasive disease (cancer), prolonged use of a preventive therapeutic agent is necessary (Kelloff et.al. Approaches to the Development and Marketing Approval of Drugs that Prevent Cancer, Cancer Epidemiology, Biomarkers & Prevention, vol 4, pp.1-10, 1995). […] Raloxifene has been studied in more than 12,000 subjects. Extensive integrated data from Phase III clinical trials of raloxifene for the prevention or treatment of osteoporosis in postmenopausal women, has been analyzed for safety. When all doses of raloxifene are integrated, this analysis has included more than 12,850 patient-years of exposure to raloxifene."}, "[4]": {"conditions": "1-Year Follow-up mammograms (6-18 months)"}, "[5]": {"conditions": "2-year Follow-up mammograms (18-30 months)"}, "[6]": {"conditions": "Baseline mammograms (1-6 months)"}, "[7]": {"conditions": "diagnosis at least 1 month after therapy assignment"}, "[8]": {"conditions": "diagnosis at least 12 months after therapy assignment"}, "[9]": {"conditions": "vs placebo, cases at least 12 months after randomization"}, "[10]": {"conditions": "vs placebo, diagnosed at least one month after random assignment"}}, "data": [{"smiles": "O=C(c1ccc(OCCN2CCCCC2)cc1)c1c(-c2ccc(O)cc2)sc2cc(O)ccc12", "note": "[Raloxifene]", "values": [{"measurement": "Raloxifene Cases", "setting": "[1]; [4]", "value": 7}, {"measurement": "Relative Risk of breast cancer", "setting": "[1]; [4]", "value": 0.56}, {"measurement": "Raloxifene Cases", "setting": "[1]; [5]", "value": 5}, {"measurement": "Relative Risk of breast cancer", "setting": "[1]; [5]", "value": 0.15}, {"measurement": "Raloxifene Cases", "setting": "[1]; [6]", "value": 5}, {"measurement": "Relative Risk of breast cancer", "setting": "[1]; [6]", "value": 1.20}, {"measurement": "Relative Risk (Raloxifene to Placebo) of breast cancer", "setting": "[1]; [7]", "value": 0.36}, {"measurement": "Raloxifene Cases n/N (%)", "setting": "[1]; [7]", "value": "18/6681"}, {"measurement": "Relative Risk (Raloxifene to Placebo) of breast cancer", "setting": "[1]; [8]", "value": 0.23}, {"measurement": "Raloxifene Cases n/N (%)", "setting": "[1]; [8]", "value": "10/6681"}, {"measurement": "breast cancer cases reported in the raloxifene treatment groups", "setting": "[1]; placebo-controlled trials of at least 6 months duration, more than 1-month of treatment, raloxifene to placebo approximately 2:1", "value": 18, "unit": "cases"}, {"measurement": "decrease in the incidence of breast cancer", "setting": "[1]; [9]", "value": 77, "unit": "%"}, {"measurement": "decrease in the rate of breast cancer", "setting": "[1]; [10]", "value": 64, "unit": "%"}, {"measurement": "Raloxifene Cases", "setting": "[2]; [4]", "value": 4}, {"measurement": "Relative Risk of breast cancer", "setting": "[2]; [4]", "value": 0.33}, {"measurement": "Raloxifene Cases", "setting": "[2]; [5]", "value": 3}, {"measurement": "Relative Risk of breast cancer", "setting": "[2]; [5]", "value": 0.12}, {"measurement": "Raloxifene Cases", "setting": "[2]; [6]", "value": 5}, {"measurement": "Relative Risk of breast cancer", "setting": "[2]; [6]", "value": 1.25}, {"measurement": "Relative Risk (Raloxifene to Placebo) of breast cancer", "setting": "[2]; [7]", "value": 0.29}, {"measurement": "Raloxifene Cases n/N (%)", "setting": "[2]; [7]", "value": "12/5317"}, {"measurement": "Relative Risk (Raloxifene to Placebo) of breast cancer", "setting": "[2]; [8]", "value": 0.14}, {"measurement": "Raloxifene Cases n/N (%)", "setting": "[2]; [8]", "value": "5/5317"}, {"measurement": "decrease in the incidence of breast carcinoma", "setting": "[2]; [9]", "value": 86, "unit": "%"}, {"measurement": "decrease in the rate of breast cancer", "setting": "[2]; [10]", "value": 71, "unit": "%"}, {"measurement": "tolerability / safety", "setting": "[3]", "value": "extremely well-tolerated"}]}]}
